Results published in US20180305370A1 (ORPHOMED, INC., priority 2015, published 2018).
Like-named read-outs stand apart in the source and are kept apart here.

Tests used:
[1] = In vivo pharmacokinetic study, IV and oral gavage
Experimental: The animal pharmacokinetic studies were conducted at Johns Hopkins Medical Institute using CD-1 mice (weighing about 35 gm, n=3 per time point). […] Blood collected at 0, 30 min and 1, 2, 6 and 24 hours post-dose. Blood samples for the drug were analyzed after harvesting the plasma and by LC/MS/MS as follows:
Extracts were centrifuged at 16000×g at 4° C. for 5 minutes. Supernatants (250 μL) were transferred to a new tube and dried under N2 at 45° C. for 1 hour. Samples were reconstituted with 100 μL of 30% acetonitrile, vortexed and centrifuged. Supernatants (90 μL) were transferred to LC vials and 10 μL was injected on LC/MS.

[2] = test system: formalin-induced hind paw licking; experiment: Analgesia, formalin paw mouse study (hind paw licking time)
human liver microsomes = experiment: Metabolic stability in human liver microsomes; details: 1 μM, human liver microsomes 1 mg protein/mL, up to 120 min, FIG. 1
[3] = for stability over time: 28 months, room temperature
[4] = cited from earlier work
ORL-1 = ORL-1 (Homo sapiens, UniProt P41146); details: cited from earlier work
[5] = in vivo; cited from earlier work

Chain of ORL-1 (P41146 whole entry, species assumed): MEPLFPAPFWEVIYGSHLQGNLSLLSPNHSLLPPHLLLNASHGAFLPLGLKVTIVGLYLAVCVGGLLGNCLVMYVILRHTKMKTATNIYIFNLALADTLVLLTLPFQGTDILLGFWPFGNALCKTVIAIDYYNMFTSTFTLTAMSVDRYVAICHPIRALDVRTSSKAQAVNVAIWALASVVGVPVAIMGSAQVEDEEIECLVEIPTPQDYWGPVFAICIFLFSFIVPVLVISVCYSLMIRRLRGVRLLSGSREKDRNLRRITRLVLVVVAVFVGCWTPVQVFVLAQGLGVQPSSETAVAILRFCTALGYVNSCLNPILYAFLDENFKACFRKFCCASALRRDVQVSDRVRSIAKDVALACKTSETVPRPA

Molecule	absolute bioavailability (ratio of area under the concentration curve after oral and IV dose) ([1]; CD-1 mice, 10 mg/kg oral gavage vs IV, FIG. 6)	bioavailability, less than morphine ([1]; animal studies versus morphine)	analgesic effect ([2]; 5 mg/kg IP, mice, FIG. 9)	activity, less than morphine ([2]; animal studies versus morphine (Example 7))	metabolism in presence of microsomal enzymes (human liver microsomes)	stability over time ([3]; listed as EGE conjugate)	stability over time ([3]; listed as compound of the invention)	HPLC Purity, September 2015 ([3]; hydrochloride salt, after 28 months at room temperature in clear glass vials)	HPLC Purity, May 2013 ([3]; hydrochloride salt, immediately after synthesis, stability baseline)	absolute bioavailability after an oral dose [4]	Activity (ORL-1)	analgesic potency compared with morphine [5]
2-[(2S)-2-[(5R,6R,7R,14S)-9α-cyclopropylmethyl-4,5-epoxy-6,14-ethano-3-hydroxy-6-methoxymorphinan-7-yl]-3,3-dimethylbutan-2-ol]-ethanol [EGE buprenorphine hydrochloride]	about 40%	about 40%	rapid analgesic effect	about 2.5%	rapid metabolism	unchanged over time	significantly more stable	98.7% (AUC)	98.6% (AUC)	–	–	–
CO[C@]12CC[C@@]3(C[C@@H]1[C@](C)(O)C(C)(C)C)[C@H]1Cc4ccc(O)c5c4[C@@]3(CCN1CC1CC1)[C@H]2O5 [Buprenorphine, buprenorphine]	–	–	–	–	–	–	–	–	–	less than 10%	Agonist	about thirty times more potent
